Measurements reported in patent US4146614A, “Threonyl-valyline leucine containing peptides and pharmaceutical compositions” (State of Michigan, priority 1977, dated 1979).
Non-standard residues stand in square brackets, D forms with d. Residues, ends and D or L forms follow the SMILES beside them. *: point of attachment. Bn = c1ccc(C*)cc1

Experiments:
tryptophan uptake = experiment: Tryptophan uptake inhibition (tryptophan uptake method)
Experimental: Each of the resultant 10 fractions is assayed according to the tryptophan uptake method described in Biological Psychiatry, Vol. 7, No. 1, p. 53, (1973) as an indication of the amount of anti-S protein factor therein.
Tryptophan uptake are also conducted for the tested polypeptides. The tryptophan uptake inhibition is determined at 10 minutes.

alpha-helical S-protein = experiment: Intracranial self-stimulation (bar pressing) in rats given alpha-helical S-protein; type: in vivo; settings: for Bar Presses Restoration %: alpha-helical S-protein intercisternally, polypeptide 0.2 mg/kg intramuscularly
[1] = Activity useful for alleviating the symptoms of schizophrenia (test not specified)
Experimental: Following essentially the same procedures as described above, N-acetyl-tyrosylthreonylvalylleucine, prolylthreonylvalylleucylprolylglycine are tested to determine their effect on rats which have been administered the alpha-helical S-protein.

[2] = test system: S-protein of schizophrenics; experiment: Conversion of alpha-helical S-protein to random chain conformation; type: biochemical, human

## CC[C@H](C)[C@H](NC(=O)[C@@H](NC(=O)[C@@H](N)[C@@H](C)O)C(C)C)C(=O)O [Threonylvalylisoleucine] (H-Thr-Val-Ile-OH)
Tryptophan uptake; determined at 10 minutes
  Tryptophan Uptake Inhibition %: 5.6%
alpha-helical S-protein; rats
  Bar Presses Restoration %: 41%

## CC(C)C[C@H](NC(=O)[C@@H](NC(=O)[C@@H](N)[C@@H](C)O)C(C)C)C(=O)N[C@@H](CCCNC(=N)N)C(=O)O [threonylvalylleucylarginine] (H-TVLR-OH)
[1]
  activity useful for alleviating the symptoms of schizophrenia (in words): exhibiting activity useful for alleviating the symptoms of schizophrenia

## CC(C)C[C@H](NC(=O)[C@@H](NC(=O)[C@@H](N)[C@@H](C)O)C(C)C)C(N)=O [Threonylvalylleucinamide] (H-Thr-Val-Leu-NH2)
Tryptophan uptake; determined at 10 minutes
  Tryptophan Uptake Inhibition %: 21.6%
alpha-helical S-protein; rats
  Bar Presses Restoration %: 90%

## CC(C)C[C@H](NC(=O)[C@@H](NC(=O)[C@@H](NC(=O)[C@@H](C)N)[C@@H](C)O)C(C)C)C(=O)O [D-Alanyl-L-threonyl-L-valyl-L-leucine] (H-[dA]TVL-OH)
Tryptophan uptake; 10, 15 and 30 minutes
  duration of tryptophan uptake inhibition (in words): after a period of time the inhibition of tryptophan uptake may be diminished
Tryptophan uptake; 15 min.
  Tryptophan Uptake Inhibition %: 16%
Tryptophan uptake; 30 min.
  Tryptophan Uptake Inhibition %: 0%
Tryptophan uptake; determined at 10 minutes
  Tryptophan Uptake Inhibition %: 15%

## N-α-Acetyl-Threonylvalyleucine, methyl ester
Tryptophan uptake; determined at 10 minutes
  Tryptophan Uptake Inhibition %: 24.2%

## CC(C)C[C@H](NC(=O)[C@@H](NC(=O)[C@@H](NC(=O)[C@@H]1CCCN1C(=O)[C@@H](N)Cc1ccccc1)[C@@H](C)O)C(C)C)C(=O)N1CCC[C@H]1C(=O)N[C@@H](Cc1ccccc1)C(=O)O [Phenylalanylprolylthreonylvallylleucylprolyl phenylalanine] (H-FPTVLPF-OH)
Tryptophan uptake; determined at 10 minutes
  Tryptophan Uptake Inhibition %: 39.5%
alpha-helical S-protein; rats
  Bar Presses Restoration %: 100%

## CC(C)C[C@H](NC(=O)[C@@H](NC(=O)[C@@H](N)[C@@H](C)O)C(C)C)C(=O)N[C@H](C)C(=O)O [L-Threonyl-L-valyl-L-leucyl-D-alanine] (H-TVL[dA]-OH)
Tryptophan uptake
  tryptophan uptake activity (in words): without significant tryptophan uptake activity
Tryptophan uptake; determined at 10 minutes
  Tryptophan Uptake Inhibition %: 2%

## NCC(=O)NCC(=O)NCC(=O)O [Glycylglycylglycine, reference compound] (H-Gly-Gly-Gly-OH)
Tryptophan uptake; determined at 10 minutes
  Tryptophan Uptake Inhibition %: 0%
alpha-helical S-protein; rats
  Bar Presses Restoration %: 3%

## CC(C)C[C@H](NC(=O)[C@@H](NC(=O)[C@@H](NC(=O)CN)[C@@H](C)O)C(C)C)C(=O)O [Glycylthreonylvalylleucine] (H-GTVL-OH)
Tryptophan uptake; determined at 10 minutes
  Tryptophan Uptake Inhibition %: 24.3%
alpha-helical S-protein; rats
  Bar Presses Restoration %: 100%

## CC(=O)N[C@H](C(=O)N[C@H](C(=O)N[C@@H](CC(C)C)C(N)=O)C(C)C)[C@@H](C)O [N-Acetyl-threonylvalylleucinamide] (Ac-Thr-Val-Leu-NH2)
Tryptophan uptake; determined at 10 minutes
  Tryptophan Uptake Inhibition %: 56.5%
alpha-helical S-protein; rats
  Bar Presses Restoration %: 100%

## CC(C)C[C@H](NC(=O)[C@@H](NC(=O)[C@@H](N)[C@@H](C)OCc1ccccc1)C(C)C)C(N)=O [O-Benzyl-threonylvalylleucinamide] (H-Thr(Bn)-Val-Leu-NH2)
Tryptophan uptake; determined at 10 minutes
  Tryptophan Uptake Inhibition %: 0%
alpha-helical S-protein; rats
  Bar Presses Restoration %: toxic

## CC(C)C[C@H](NC(=O)[C@@H](NC(=O)[C@@H](NC(=O)[C@@H]1CCCN1)[C@@H](C)O)C(C)C)C(=O)N1CCC[C@H]1C(=O)NCC(=O)O [Prolylthreonylvalylleucylprolylgylcine] (H-PTVLPG-OH)
Tryptophan uptake; determined at 10 minutes
  Tryptophan Uptake Inhibition %: 44.2%
alpha-helical S-protein; rats administered the alpha-helical S-protein
  restoration of the bar pressing activity of the rats (in words): restores the bar pressing activity of the rats

## CC(C)C[C@@H](NC(=O)[C@@H](NC(=O)[C@@H](N)[C@@H](C)O)C(C)C)C(=O)O [L-Threonyl-L-valyl-D-leucine] (H-Thr-Val-[dL]-OH)
Tryptophan uptake; 15 min.
  Tryptophan Uptake Inhibition %: 18%
Tryptophan uptake; 30 min.
  Tryptophan Uptake Inhibition %: 21%
Tryptophan uptake; determined at 10 minutes
  Tryptophan Uptake Inhibition %: 12%

## CC(=O)N[C@H](C(=O)N[C@H](C(=O)N[C@@H](CC(C)C)C(=O)O)C(C)C)[C@@H](C)O [N-Acetyl-threonylvalylleucine] (Ac-Thr-Val-Leu-OH)
Tryptophan uptake; determined at 10 minutes
  Tryptophan Uptake Inhibition %: 20.2%
alpha-helical S-protein; rats
  Bar Presses Restoration %: 100%

## CC(C)C[C@H](NC(=O)[C@@H](NC(=O)[C@@H](N)[C@@H](C)O)C(C)C)C(=O)O [Threonylvalylleucine] (H-Thr-Val-Leu-OH)
[2]
  activity against the S-protein of schizophrenics (conformation change, in words): the alpha-helical conformation of the S-protein is converted to the random form
Tryptophan uptake; determined at 10 minutes
  Tryptophan Uptake Inhibition %: 19.8%
alpha-helical S-protein; rats
  period of effectiveness in counteracting the effect of the S-protein: of short duration
  Bar Presses Restoration %: 85%
